Experimental findings from patent publication USRE35321E, “Tetrazoleacetic acid derivatives having aldose reductase inhibitory activity” (Wakamoto Pharmaceutical Co., Ltd., priority 1990, dated 1996) are described below.

Test [1] has as its system accumulation of sorbitol in sciatic nerve. As to the kind of experiment: Inhibiting the accumulation of sorbitol in sciatic nerve of streptozotocin diabetic rats. The class given is in vivo, Sprague-Dawley male rats. To be noted: twice a day for 5 days. As to the method: Groups of 6 to 8-weeks-old Sprague-Dawley male rats (4 aminals per group) were fasted for 18 hours and streptozotocin was injected through the tail vein in a dose of 60 mg/kg to thus obtain diabetic rats. Immediately after the administration of the streptozotocin, each compound to be tested was orally administered to these rats in the form of a suspension at a dose of 10 mg/kg, 30 mg/kg and 50 mg/kg (each was suspended in a 0.5% sodium carboxymethyl cellulose solution) twice a day (9 o'clock in the morning and 5 o'clock in the afternoon) for 5 days. During the test, the rats took diet and drank water freely. 4 Hours after the final administration of the drug in the 5th day's morning (9 o'clock in the morning), the rats were sacrificed and then the sciatic nerve thereof was removed to determine the amount of sorbitol accumulated therein.
The results are expressed in the percentage obtained while the value obtained on the control to which any drug was not administered is defined to be 100.

The next test addresses T1, aldose reductase (Rattus norvegicus, UniProt P07943).
T1 construct: Then their crystalline lenses were immediately removed and stored at -80° C; The lenses were homogenized; from tissue; host or cells: crystalline lenses of six-week-old male SD rats
As to the kind of experiment: Aldose reductase inhibitory effect (enzyme from crystalline lenses, DL-glyceraldehyde substrate). The class given is biochemical, rat (male SD). The conditions noted are these: 10 mM DL-glyceraldehyde, pH 6.2, 30° C. As to the method:
Six-weeks-old male SD rates were anesthetized with ether and killed. Then their crystalline lenses were immediately removed and stored at -80° C. […] All operations were conducted at 4° C. and the enzyme solution was stored at -80° C.
More specifically, 0.1 ml of DL glyceraldehyde (final concentration: 10 mM) was added to 0.9 ml of 100 mM sodium potassium phosphate buffer (pH 6.2) which contained lithium sulfate (final concentration: 400 mM), reduced nicotinamide adenine dinucleotide phosphate (final concentration: 0.15 mM), the enzyme solution, and the compound to be evaluated (final concentration: 10^-6 M, 10^-7 M or […]), and then the reaction was conducted at 30° C. for 5 minutes. During the reaction, the change in the absorbance at 340 nm with time was monitored. The maximum reducing rate of the absorbance (U) during the reaction was determined. By subtracting, from this value, the maximum reducing rate (Uo) at 340 nm of the reaction solution before the addition of the substrate (DL-glyceraldehyde), the reaction rate (V=U-Uo) was calculated as a true reaction rate in the presence of the compound to be tested.
The same procedure was repeated except for the absence of the compound to be tested. A true reaction rate (Vo) in case the enzyme was not inhibited was calculated (Vo =U'-Uo '). The aldose reductase inhibitory activity of the test compounds was determined according to the following formula:
Rate of Inhibition (%)=(Vo -V)/Vo ×100

Take `O=C(O)Cn1nnnc1-c1cccs1` [Example 2-1, [5-(2-thienyl)tetrazol-1-yl] acetic acid]: the “Rate of Inhibition of Sorbitol Accumulation” value came to 68% in test [1] (10 mg/kg oral) and 89% in test [1] (30 mg/kg oral). Moreover, at aldose reductase, half-maximal inhibition (IC50) was put at 16 nM.

For `CC(/C=C1\SC(=S)N(CC(=O)O)C1=O)=C\c1ccccc1` [ONO-2235, (E)-3-carboxymethyl-5-[(2E)-methyl-3-phenylpropenylidene] rhodan, reference compound], the “Rate of Inhibition of Sorbitol Accumulation” value is given as 0% in test [1] (10 mg/kg oral), 0% in test [1] (30 mg/kg oral) and 40% in test [1] (50 mg/kg oral).

Turning to `O=C(O)Cn1nnnc1-c1ccsc1` [Example 2-5, [5-(3-thienyl)tetrazol-1-yl] acetic acid], the entries for the “Rate of Inhibition of Sorbitol Accumulation” value in test [1] (10 mg/kg oral) and in test [1] (30 mg/kg oral) were 73% and 90%, respectively. Further, the IC50 (in general, the point on the concentration scale where inhibition reaches its midpoint) against aldose reductase is 21 nM.

Consider `Cc1ccsc1-c1nnnn1CC(=O)O` [Example 2-2, [5-(3-methyl-2-thienyl)tetrazol-1-yl] acetic acid], for which the “Rate of Inhibition of Sorbitol Accumulation” value was 62% in test [1] (10 mg/kg oral) and 93% in test [1] (30 mg/kg oral). This compound also had an IC50 against aldose reductase of 18 nM.

On to `O=C(O)Cn1nnnc1-c1ccoc1` [Example 2-7, [5-(3-furyl)tetrazol-1-yl] acetic acid], for which the “Rate of Inhibition of Sorbitol Accumulation” value was found to be 46% in test [1] (10 mg/kg oral) and 77% in test [1] (30 mg/kg oral). Further, on aldose reductase, the midpoint of inhibition, the IC50, lay at 30 nM.

On aldose reductase, `O=C(O)Cn1nnnc1-c1ccc(CCCc2ccccc2)s1` [Example 2-21, [5-(5-phenylpropyl-2-thienyl)tetrazol-1-yl] acetate acid] showed an IC50 of 28 nM.

`CSc1sccc1-c1nnnn1CC(=O)O` [Example 2-26, [5-(2-methylthio-3-thienyl)tetrazol-1-yl] acetic acid] gave an IC50 against aldose reductase of 31 nM.

In turn, `CSc1ccc(-c2nnnn2CC(=O)O)o1` [Example 2-30, [5-(5-methylthio-2-furyl)tetrazol-1-yl] acetic acid] yielded a concentration for half-maximal inhibition (IC50) on aldose reductase of 110 nM.

`O=C(O)Cn1nnnc1-c1ccsc1Sc1ccccc1` [Example 2-33, [5-(2-phenylthio-3-thienyl)tetrazol-1-yl] acetic acid] returned an IC50 against aldose reductase of 24 nM.

In the case of `CSc1occc1-c1nnnn1CC(=O)O` [Example 2-32, [5-(2-methylthio-3-furyl)tetrazol-1-yl] acetic acid], it took 35 nM to reach half-maximal inhibition at aldose reductase (IC50).

With `CCOC(=O)Cn1nnnc1-c1ccsc1` [Example 3-2, ethyl [5-(3-thienyl)tetrazol-1-yl] acetate], half-maximal inhibition against aldose reductase (IC50) required 580 nM. Against the preceding compound, the IC50 is about 17-fold higher.

Compound `Cc1csc(-c2nnnn2CC(=O)O)c1` [Example 2-3, [5-(4-methyl-2-thienyl)tetrazol-1-yl] acetic acid] came in with an IC50 at aldose reductase of 24 nM.

`O=C(O)Cn1nnnc1-c1ccc(Br)s1` [Example 2-11, [5-(5-bromo-1-thienyl)tetrazol-1-yl] acetic acid]: at aldose reductase, the 50% inhibitory concentration (IC50) turned out to be 19 nM.

In the case of `CCN(CC)S(=O)(=O)c1ccc(-c2nnnn2CC(=O)O)s1` [Example 2-35, [5-[5-(N,N-diethylaminosulfonyl)-2-thienyl]tetrazol-1-yl] acetic acid], the IC50 on aldose reductase stood at 390 nM.

In the case of `O=C(O)Cn1nnnc1-c1ccc(S(=O)(=O)N2CCCCC2)s1` [Example 2-37, [5-(5-piperidinosulfonyl2-thienyl)tetrazol-1-yl] acetic acid], the 50% inhibitory concentration (IC50) on aldose reductase worked out at 230 nM.

In the case of `CCN(CC)S(=O)(=O)c1sccc1-c1nnnn1CC(=O)O` [Example 2-38, [5-[2-(N,N-diethylaminosulfonyl)-3-thienyl)tetrazol-1-yl] acetic acid], the IC50 against aldose reductase amounted to 460 nM.

At aldose reductase, `CS(=O)(=O)Nc1ccsc1-c1nnnn1CC(=O)O` [Example 2-39, [5-(3-methylsulfonylamino-2-thienyl)tetrazol-1-yl] acetic acid] came in with an IC50 of 28 nM.

On aldose reductase, `O=C(O)Cn1nnnc1-c1ccc(-c2ccccc2)s1` [Example 2-14, [5-(5-phenyl-2-thienyl)tetrazol-1-yl] acetic acid] registered a concentration for half-maximal inhibition (IC50) of 21 nM. This IC50 and that of the compound before are within 1.5-fold of each other.

`CCCCc1ccc(-c2nnnn2CC(=O)O)s1` [Example 2-20, [5-(5-butyl-2-thienyl)tetrazol-1-yl] acetic acid] had a concentration for half-maximal inhibition (IC50) against aldose reductase of 23 nM.

In turn, `O=C(O)Cn1nnnc1-c1ccco1` [Example 2-6, [5-(2-furyl)tetrazol-1-yl] acetic acid] came in with an IC50 against aldose reductase of 60 nM.

`O=C(O)Cn1nnnc1-c1sccc1NS(=O)(=O)c1ccccc1` [Example 2-41, [5-(3-phenylsulfonylamino-2-thienyl)tetrazol-1-yl] acetic acid] displayed a concentration for half-maximal inhibition (IC50) against aldose reductase of 23 nM.

The compound `CCc1ccc(-c2nnnn2CC(=O)O)s1` [Example 2-8, [5-(5-ethyl-2-thienyl)tetrazol-1-yl] acetic acid] showed an IC50 on aldose reductase of 21 nM. The IC50 values of the last two compounds are within 1.5-fold of each other.

Compound `C[S+]([O-])c1sccc1-c1nnnn1CC(=O)O` (stereo not shown) [Example 2-43, [5-(2-methylsulfinyl-3-thienyl)tetrazol-1-yl] acetic acid] showed an IC50 against aldose reductase of 300 nM.

`CCCCc1ccc(-c2nnnn2CC(=O)OC)s1` [Example 3-5, methyl [5-(5-butyl-2-thienyl)tetrazol-1-yl] acetate] yielded a 50% inhibitory concentration (IC50) at aldose reductase of 180 nM.

In turn, `CCCCN(CCCC)S(=O)(=O)c1ccc(-c2nnnn2CC(=O)O)s1` [Example 2-36] returned an IC50 on aldose reductase of 85 nM.

Turning to `O=C(O)Cn1nnnc1-c1sccc1NC(=O)CCc1ccccc1` [Example 2-19, [5-(3-phenethylcarbonylamino-2-thienyl)tetrazol-1-yl] acetic acid], on aldose reductase, the half-maximal inhibitory concentration (IC50) turned out to be 24 nM.

On to `Cc1ccc(-c2nnnn2CC(=O)O)s1` [Example 2-4, [5-(5-methyl-2-thienyl)tetrazol-1-yl] acetic acid], for which the half-maximal inhibitory concentration (IC50) against aldose reductase came to 23 nM.
